Assay [1] concerns HBV (HBVcircle transfected HepG2 cells). Kind of assay: In vitro anti-HBV drug evaluation in HBVcircle transfected HepG2 cells. The conditions noted are these: treated 6 days. Type of assay: cell-based. On the procedure: X-[…] HP DNA transfection reagent (from Roche) was used for transfection. One day before transfection, cells were trypsinized and seeded onto plates, Cells were seeded at 0.8×10^5/well in 24 well plates for HepG2 and proliferation HepaRG cell line, and 3×10^5/well in 24 well plates for differentiated HepaRG cell line.
(§1) HBeAg or HBsAg were measured by using the HBeAg or HBsAg ELISA kit (from Autobio) according to the manufacturer's direction.
The transfected HepG2 cells were lysed using lysis buffer (50 mM Tris-HCl, pH8.0, 100 mM NaCl, 1% CA-630, 1×EDTA free proteinase inhibitor). After incubation at 4° C. for 1 h with agitation, cytoplasmic lysate was cleared by centrifugation. The lysate was separated by electrophoresis in 1.5% agarose gel and then transferred onto PVDF membrane (for Western blotting) or a positively charged nylon membrane (for southern blotting), for detecting the capsid protein and encapsidated DNA respectively.
After SDS-PAGE, gels were transferred to PVDF membrane by using iblot system (from Invitrogen). […]
The sample was loaded to an electrophoresis of 1.5% agarose gel in 1×TAE buffer for 2-3 hours. […] After incubating blots with an alkaline-phosphatase-conjugated anti-DIG antibody, hybridization signals were detected in a standard chemiluminescence reaction.
Next, the feasibility of evaluating anti-HBV drugs using HBVcircle system in cell culture models was assessed. […]

Assay [2] deals with HBV (HBVcircle injected C3H/HeN mice). Kind of assay: In vivo anti-HBV drug evaluation in HBVcircle HDI mice. Particulars: 10 μg HBVcircle, 0.03mg/kg QD orally for 29 days from day 23. On the procedure: The animals were grouped based on Day-1 body weights. On Day 0, all animals were subjected to hydrodynamic injection through tail vein within 5 seconds with 2.5-20 μg DNA in a volume (mL) of saline equivalent to 8% of body weight (g) (Liu, et al., 1999, Gene Ther, 6: 1258-66, Zhang, et al., 1999, Hum Gene Ther, 10: 1735-7). After animal exclusion due to technical failure of hydrodynamic injection or low HBV marker expression on Day 1 or Day 3, the remaining mice were maintained for long term evaluation. Blood samples were collected for serum preparation on indicated time post HDI injection.
For compound treatment, on Day 20 post HDI (DAY-3 of compound treatment), C3H/HeN mice were divided into 4 groups based on serum HBsAg levels and body weights on DAY 20. ETV and R848 were diluted in saline from stock solutions on treatment days. Vehicle was RC591. All test compounds were given orally with indicated dose and frequency.
as §1
HBV DNA in cell culture supernatant or mouse serum was extracted using MagNA Pure 96 System MagNA Pure 96 System (from Roche). HBV DNA levels were determined via RT-PCR. The primer and probe sequences are shown below. […]

Regarding `C=C1[C@H](CO)[C@@H](O)C[C@@H]1n1cnc2c(=O)[nH]c(N)nc21` [ETV, Entecavir], in assay [1], the “HBV DNA replication (encapsidated HBV DNA, southern blot)” value was “efficiently blocked HBV DNA replication in a dose dependent manner” and the “other viral proteins expression” value is “did not affect other viral proteins expression”. In addition, the “HBV DNA in serum” value in assay [2] is on record as “efficiently reduced HBV DNA in serum to undetectable level”.
